The nature of assay [1]: Basic analgesic test: adjuvans arthritis pain test on the rat, oral administration. The class given is in vivo, rat (male OFA). The note with it: for ED50: Rattus norvegicus, po, individual component. Here is the method: J. of Pharmacology 31, 207-215 (1975)], e.g. as follows: […] This induces a secondary arthritis of the right hind-paw within the course of the next two or more days. The test for analgesic effectiveness is carried out 16 to 18 days later. A control measurement is carried out 30 minutes prior to administration of the test-substance, by flexing the ankle-joint of the right hind paw three times and recording the number of vocalisations (pain-reaction). […] The confidence limits are determined according to the method of […] Wilcoxon. All tests are carried out blind, employing 5 to 15 animals per test substance.

Assay [2] in a line: Test for synergism: analgesia 3 hours after oral co-administration, adjuvans arthritis pain test on the rat. The assay is classed as in vivo, rat (male OFA). Here is the method:
In order to establish the presence or absence of synergism the basic analgesic test described above is employed, with analgesia measured three hours after administration of the test substance. Varying proportions of the two test-substance components are used, in fixed dose relationships, based upon the ED50 values previously established for the individual components. The degree of activity is then presented graphically. The test components are administered orally in tragacanth suspension and 5 to 15 animals employed per test run. The two test-components are administered in the following dose relationship: […]
Thus three basic curves may be obtained as shown diagramatically in FIG. 1 in which a curve x represents potentiation (i.e. super-additive synergism), a curve y represents additive synergism and a curve z represents antagonism.

Where [3] appears, read: 1 hour after administration, read-out: ED50 at 1 hour after administration.
Setting [4] is: 3 hours after administration, read-out: ED50 at 3 hours after administration.
Where [5] appears, read: 5 hours after administration, read-out: ED50 at 5 hours after administration.

Read-outs that look alike come from different tables or passages of the source.

For the molecule `Cc1ccc2c(-c3ccc(F)cc3)nc(=O)n(C(C)C)c2c1` [Component A, 1-Isopropyl-4-(4-fluorophenyl)-7-methyl-2(1H)-quinazolinone], the ED50 is around 18 mg/kg in assay [1] (setting [3]), 6.5 mg/kg in assay [1] (setting [4]) and 7 mg/kg in assay [1] (setting [5]). Besides, the activity at 6.5 mg/kg in assay [2] (Rattus norvegicus, po, A 6.5 mg/kg, B 0 p.o. (relative dosage 1 : 0)) was 50%.

Regarding `Clc1ccc2nsnc2c1NC1=NCCN1` [Component B, 5-chloro-4-(2-imidazolin-2-ylamino)-2,1,3-benzothiadiazole], the results for the ED50 in assay [1] (setting [3]), in assay [1] (setting [4]) and in assay [1] (setting [5]) were around 1.8 mg/kg, 3.6 mg/kg and around 10 mg/kg, respectively. Moreover, the “percentage printed in parentheses beside the ED50 at 5 hours (not explained)” value in assay [1] (p.o., 5 hours after administration) is recorded as -60%. Moreover, in assay [2] (A 0, B 3.6 mg/kg p.o. (relative dosage 0 : 1)), the “% activity” value was 50%.

The values above are taken from US4442084A, “Analgesic and myotonolytic preparations” (Sandoz Ltd., priority 1979, dated 1984).
